The record followed here is patent US12351587B2, “Bicyclic compound as RIP-1 kinase inhibitor and application thereof” (MEDSHINE DISCOVERY INC., priority 2019, dated 2025).

The test system of one data set is U937 cells. In words: U937 cell activity assay: TNFα/QVD-OPh-induced programmed cell necrosis (necroptosis). The format is cell-based, human. The following applies: QVD-OPh 25 μM + TNF-α 100 ng/mL, CellTiter Glo. As to the method: 1.2 Instrument and Materials
Envision plate reader (Perkin Elmer, Cat #2104-0010)
1.3 Formulation of Reagents • (1) 1×DPSB: To 100 mL of 10×DPBS was added 900 mL of deionized water. • (2) 1640 complete medium: To 89 mL of RPMI-1640 medium were added 10 mL of FBS and 1 mL of penicillin/streptomycin 2. Assay Steps • 1. U937 cells were centrifuged, and then the medium was discarded. The cells were resuspended in 1640 complete medium and counted. The cell concentration was adjusted to 5×10^5 cells/mL for use, and the cells were arranged according to compounds to be assayed. • 2. To the prepared resuspension of U937 cells were added QVD-OPh at a final concentration of 25 μM and TNF-α at a final concentration of 100 ng/mL, and then the mixture was mixed gently. • 3. To a 384-well plate was added 30 μL/well of U937 cells containing 25 μM of QVD-OPh and TNF-α at a final concentration of 100 ng/mL, and blank control wells without QVD-OPh and TNF-α were set up. • 4. To the dosing group […] added 10 μL of the assay compound at 4 times the preset concentration, and to the blank control well was added DMSO at the corresponding concentration. • 5. The 384-well plate was placed in a 37° C. and 5% CO2 cell incubator for 24 hours. • 6. After 24 hours, the 384-well plate was taken out and equilibrated at room temperature for 20 minutes. • 7. 40 μL of CTG was added to each well, and then the plate was shaken on a shaker in the dark for 2 minutes. • 8. The plate was incubated at room temperature in the dark for 10 minutes, and then read using an Envision plate reader.
For orientation: In ATP-based viability assays light output follows the ATP content of the culture.

The test system of the next data set is L929 cells. In words: In vitro activity assay of mouse RIP1: L929 cell TNFα/QVD-OPh-induced necroptosis. The note with it: TNF-α 50 ng/mL + Q-VD 50 μM, 24 h, CellTiter Glo. Type of data set: cell-based. As to the method:
Assay Example 2: In Vitro Activity Assay of Mouse RIP1
L929 (purchased from ATCC, Item No.: CCL-1)
Instrument Microplate reader (Perkin Elmer, Envision) Formulation of Reagents L929 cell complete medium: EMEM+10% horse serum (volume ratio)+1% double antibiotics (volume ratio) Assay Step • 1. The cultured L929 cells were digested with trypsin, centrifuged, resuspended in complete culture medium, and then counted. The cell concentration was then diluted to 1×10^5/mL with complete culture medium. • 2. The cell suspension was added to a 96-well plate at 100 μL per well and incubated at 37° C. and 5% CO2 for 24 h. • 3. Different concentrations of assay compounds were added to each well, and dimethyl sulfoxide was added to the control group. The plate was incubated at 37° C. and 5% CO2 for 1 h. • 4. To each well were added TNF-α at a final concentration of 50 ng/mL and Q-VD at a final concentration of 50 μM, and the plate was incubated at 37° C. and 5% CO2 for 24 h. • 5. To each well was added 50 μL of CellTiter Glo […], and the plate was shaken in the dark for 10 min. • 6. The plate was read on the microplate reader.

Data set [1] in a line: Pharmacokinetic parameters in dogs. The format is in vivo. The following applies: beagle, plasma, dog. On the procedure:
Four healthy adult beagle dogs were selected and randomly divided into two groups. One group was given the assay compound by intravenous injection, and the other group was given the assay compound by gavage. Plasma samples were collected respectively from animals in the intravenous group and gavage group at 0.083, 0.25, 0.5, 1.0, 2.0, 4.0, 6.0, 8.0, 24 hours after administration. The blood concentration was determined by LC-MS/MS method. Relevant pharmacokinetic parameters were calculated by WinNonlin™ Version 6.3 (Pharsight. Mountain View, CA) pharmacokinetic software using non-compartmental model and linear logarithmic trapezoidal method. AUC0-last represents the area under the plasma concentration-time curve from zero time point to the last detectable concentration time point; Cmax represents the peak concentration; Tmax represents the time to reach the peak; T1/2 represents the half-life; CL represents the clearance rate; Vdss represents apparent volume of distribution; p.o. represents per os; i.v. represents intravenous injection; and F % represents oral bioavailability.

In general, IC50 refers to the concentration that inhibits the measured activity by half. As to `CN1C(=S)[C@@H](NC(=O)c2nc3n(n2)CCO[C@H]3c2ccccc2)COc2cccnc21` (single isomer, unassigned) [WX028], the concentration for half-maximal inhibition (IC50) in the data set on U937 cells (Homo sapiens, U-937, 24 h) was found to be 4.7 nM; in the data set with L929 cells, 0.065 µM. The corresponding values for `CN1C(=S)[C@@H](NC(=O)c2nc(Cc3ccccc3)n[nH]2)COc2ccccc21` [WX001] are 0.5 nM and 1.16 µM. For the molecule `CN1C(=S)[C@@H](NC(=O)c2nc(Cc3cccc(C#N)c3)n[nH]2)COc2ccccc21` [WX002], the IC50 with U937 cells (Homo sapiens, U-937, 24 h) stood at 1.8 nM.

Regarding `CN1C(=S)[C@@H](NC(=O)c2nc(Cc3ccccc3)n[nH]2)COc2cccnc21` [WX003], the IC50 in the data set with U937 cells (Homo sapiens, U-937, 24 h) stood at 0.5 nM; in the data set with L929 cells, 1.21 µM.

In the case of `CN1C(=S)[C@@H](NC(=O)c2nc(Cc3cccc(C#N)c3)n[nH]2)COc2cccnc21` [WX004], the concentration for half-maximal inhibition (IC50) in the data set on U937 cells (Homo sapiens, U-937, 24 h) was found to be 0.3 nM. For `[2H]C([2H])([2H])N1C(=S)[C@@H](NC(=O)c2n[nH]c(Cc3ccccc3)n2)COc2cccnc21` [WX005], the 50% inhibitory concentration (IC50) came out at 2 nM in the data set with U937 cells (Homo sapiens, U-937, 24 h) and 1.31 µM with L929 cells. Regarding `CN1C(=S)[C@@H](NC(=O)c2cn(Cc3ccccc3)cn2)COc2cccnc21` [WX006], the concentration for half-maximal inhibition (IC50) in the data set with U937 cells (Homo sapiens, U-937, 24 h) worked out at 9 nM. For `CN1C(=S)[C@@H](NC(=O)c2cc(Cc3ccccc3)on2)COc2cccnc21` [WX007], in the data set on U937 cells (Homo sapiens, U-937, 24 h), the IC50 stood at 70 nM. Consider `CN1C(=S)[C@@H](NC(=O)c2nc(Cl)n(Cc3cccc(C#N)c3)n2)COc2cccnc21` [WX008], for which the IC50 in the data set on U937 cells (Homo sapiens, U-937, 24 h) worked out at 8.1 nM; with L929 cells it was 0.047 µM.

As for `CN1C(=S)[C@@H](NC(=O)c2cn(Cc3ccccc3)nn2)COc2cccnc21` [WX010], the IC50 in the data set on U937 cells (Homo sapiens, U-937, 24 h) is 47 nM. For `CN1C(=S)[C@@H](NC(=O)c2nc(Cl)n(Cc3ccccc3)n2)COc2cccnc21` [WX011], the IC50 in the data set on U937 cells (Homo sapiens, U-937, 24 h) came out at 1.7 nM; in the data set with L929 cells, 0.011 µM. Regarding `CN1C(=S)[C@@H](NC(=O)c2nnc(Cc3ccccc3)o2)COc2cccnc21` [WX012], the IC50 with U937 cells (Homo sapiens, U-937, 24 h) was 12.1 nM.

As a reminder, the AUC(0-t) is exposure summed from dosing to a finite time, without extrapolation to infinity. Read a high AUC(0-t) as more exposure. In general, clearance refers to the rate of elimination divided by the concentration. A low value points to a low capacity for elimination. For orientation: half-life means how long it takes for the measured level to halve. Higher therefore signals slow loss. A word on the bioavailability: it is dose-corrected exposure relative to a reference, in per cent. Regarding `CN1C(=S)[C@@H](NC(=O)c2nc3n(n2)[C@H](c2ccccc2)CC3)COc2cccnc21` [WX013], the 50% inhibitory concentration (IC50) with U937 cells (Homo sapiens, U-937, 24 h) is 1.8 nM. Besides, in the data set with L929 cells, the concentration for half-maximal inhibition (IC50) worked out at 0.014 µM. In data set [1] (1 mg/kg, iv = 1 mpk), this molecule showed an exposure AUC(0-t) of 7.42 µM·h, a clearance of 5.18 mL/min/kg and a half-life of 4.89 h. The Vd in data set [1] (1 mg/kg, iv = 1 mpk, read-out: Vdss) is 2.02 L/kg. Moreover, the AUC(0-t) in data set [1] (5 mg/kg, po = 5 mpk) was 27.7 µM·h. Moreover, in data set [1] (po = 5 mpk vs iv = 1 mpk), the bioavailability amounted to 80.1%. Consider `O=C(N[C@H]1CCc2cc(F)cc(F)c2NC1=S)c1nc(Cc2ccccc2)n[nH]1` [WX014], for which the IC50 with U937 cells (Homo sapiens, U-937, 24 h) turned out to be 3.7 nM.

For `CN1C(=S)[C@@H](NC(=O)c2nnn(Cc3ccccc3)n2)COc2cccnc21` [WX015], the IC50 in the data set with U937 cells (24 hours) is 5.1 nM. For the molecule `Cc1nc(C(=O)N[C@H]2COc3cccnc3N(C)C2=S)nn1Cc1ccccc1` [WX016], the IC50 in the data set on U937 cells (Homo sapiens, U-937, 24 h) worked out at 9.8 nM. On the same count and under the same terms, the same measure for `CN1C(=S)[C@@H](NC(=O)c2ncn(CC34CC(F)(C3)C4)n2)COc2cccnc21` [WX017]: 59 nM. Turning to `CN1C(=S)[C@@H](NC(=O)c2nnn(Cc3ccccc3)n2)COc2cccnc21` [WX018], the half-inhibitory concentration (IC50) with U937 cells (24 hours) was 1.3 nM.

As to `CN1C(=S)[C@@H](NC(=O)c2ncn(Cc3ccccc3F)n2)COc2cccnc21` [WX019], the concentration for half-maximal inhibition (IC50) with U937 cells (Homo sapiens, U-937, 24 h) came to 0.6 nM; in the data set with L929 cells, 0.051 µM. With `CN1C(=S)[C@@H](NC(=O)c2ncn(Cc3c(F)cccc3F)n2)COc2cccnc21` [WX020], the IC50 in the data set with U937 cells (Homo sapiens, U-937, 24 h) was 0.6 nM; in the data set on L929 cells, 0.029 µM. The corresponding values for `CN1C(=S)[C@@H](NC(=O)c2ncn(Cc3ccccc3)n2)COc2cc(Cl)cnc21` [WX021] are 13 nM and 0.445 µM. Turning to `CN1C(=S)[C@@H](NC(=O)c2ncn(Cc3ccccc3F)n2)COc2cc(Cl)cnc21` [WX022], in the data set with U937 cells (Homo sapiens, U-937, 24 h), the concentration for half-maximal inhibition (IC50) was 20 nM. Same read-out and setting: the same measure for `CN1C(=S)[C@@H](NC(=O)c2ncn(Cc3ccccc3)n2)COc2cc(Br)cnc21` [WX023]: 29 nM; for `CN1C(=S)[C@@H](NC(=O)c2ncn(Cc3ccccc3)n2)COc2ccc(C(=O)O)cc21` [WX024]: 43 nM.

As to `CN1C(=S)[C@@H](NC(=O)c2ncn(Cc3ccccc3)n2)COc2ccncc21` [WX025], in the data set on U937 cells (Homo sapiens, U-937, 24 h), the IC50 was determined as 12 nM. Still for that read-out and setting: the same measure for `CN1C(=S)[C@@H](NC(=O)c2cc(Oc3ccccc3)ccn2)COc2cccnc21` [WX026]: 5 nM; for `COc1ccccc1Cn1cnc(C(=O)N[C@H]2COc3cccnc3N(C)C2=S)n1` [WX027]: 20 nM. `CN1C(=S)[C@@H](NC(=O)c2ncn(Cc3cccc(F)c3)n2)COc2cccnc21` [WX029]: the half-inhibitory concentration (IC50) is 2.2 nM in the data set on U937 cells (Homo sapiens, U-937, 24 h) and 0.184 µM in the data set on L929 cells. As to `COc1ccc(Cn2cnc(C(=O)N[C@H]3COc4cccnc4N(C)C3=S)n2)cc1` [WX030], the IC50 in the data set with U937 cells (Homo sapiens, U-937, 24 h) was 15.6 nM. Consider `CN1C(=S)[C@@H](NC(=O)c2ncn(Cc3ccc(F)cc3)n2)COc2cccnc21` [WX031], for which the 50% inhibitory concentration (IC50) in the data set with U937 cells (Homo sapiens, U-937, 24 h) turned out to be 2.4 nM; with L929 cells, 0.174 µM. The corresponding values for `CN1C(=S)[C@@H](NC(=O)c2ncn(Cc3cccc(C#N)c3)n2)COc2cccnc21` [WX032] are 5.7 nM and 0.255 µM. For `Cc1cccc(Cn2cnc(C(=O)N[C@H]3COc4cccnc4N(C)C3=S)n2)c1` [WX033], in the data set with U937 cells (Homo sapiens, U-937, 24 h), the 50% inhibitory concentration (IC50) worked out at 7.6 nM. Same read-out and setting: the same measure for `CN1C(=S)[C@@H](NC(=O)c2ncn(Cc3cc(F)cc(F)c3)n2)COc2cccnc21` [WX034]: 3.7 nM. Regarding `Cc1ccccc1Cn1cnc(C(=O)N[C@H]2COc3cccnc3N(C)C2=S)n1` [WX035], the IC50 in the data set on U937 cells (Homo sapiens, U-937, 24 h) is 4.9 nM.

For the molecule `CN1C(=S)[C@@H](NC(=O)c2ncn(Cc3cccc(Cl)c3)n2)COc2cccnc21` [WX036], the concentration for half-maximal inhibition (IC50) in the data set on U937 cells (Homo sapiens, U-937, 24 h) is 6.4 nM. The same measure, in the same setting: then `CN1C(=S)[C@@H](NC(=O)c2ncn(Cc3cccc(Br)c3)n2)COc2cccnc21` [WX037], with 24 nM; and `CN1C(=S)[C@@H](NC(=O)c2ncn(Cc3ccc(OC(F)(F)F)cc3)n2)COc2cccnc21` [WX038], with 238 nM. With `Cc1ccc(Cn2cnc(C(=O)N[C@H]3COc4cccnc4N(C)C3=S)n2)cc1` [WX039], the half-inhibitory concentration (IC50) in the data set with U937 cells (Homo sapiens, U-937, 24 h) was determined as 3.4 nM; with L929 cells, 0.064 µM. On to `CN1C(=S)[C@@H](NC(=O)c2ncn(Cc3ccccc3)n2)COc2ccc(C(N)=O)cc21` [WX040], for which the 50% inhibitory concentration (IC50) with U937 cells (Homo sapiens, U-937, 24 h) is 4.8 nM. On to `CN1C(=S)[C@@H](NC(=O)c2ncn(Cc3ccc(C(F)(F)F)cc3)n2)COc2cccnc21` [WX041], for which the IC50 with U937 cells (Homo sapiens, U-937, 24 h) worked out at 86.5 nM. Still for that read-out and setting: the same measure for `COc1cccc(Cn2cnc(C(=O)N[C@H]3COc4cccnc4N(C)C3=S)n2)c1` [WX042]: 24.8 nM.
